The values below come from PMC12254070, “Antimicrobial Peptides Design Using Deep Learning and Rational Modifications: Activity in Bacteria, Candida albicans, and Cancer Cells” (Current Microbiology, 2025).

As usually defined, the IC50 is the concentration at which inhibition is half-maximal.

Ends that are not written are not given here.

In series [1] the test system is Escherichia coli ATCC 25922. In kind it is cell-based. The protocol: (§1) The antimicrobial activity of the peptides was evaluated with S. aureus ATCC 25923, P. aeruginosa ATCC 27853, Escherichia coli ATCC 25922, Klebsiella quasipneumoniae ATCC 700603, and the yeast C. albicans ATCC 10231. The minimum inhibitory concentration (MIC) was determined following the protocol described by Wiegand et al.. Briefly, bacteria were grown overnight in Mueller–Hinton (MH) medium at 37 °C and 90 rpm, while C. albicans was grown at 30 °C in MH supplemented with 30% YPD (yeast extract, peptone, dextrose). The concentration of bacteria and C. albicans was adjusted to 10^6 CFU/mL. […] Microorganism growth was measured hourly at 600 nm for 24 h, with a 10-s shaking cycle, on a Multiskan Go microplate reader (Thermo Scientific). The experiments with bacteria were incubated at 37 °C, whereas those with C. albicans were incubated at 30 °C. Each peptide was evaluated by duplicate on 2 different days. The MIC was estimated as the minimum peptide concentration at which the microorganism had no growth. […] In all assays, untreated culture medium without peptides was included as a negative control to account for basal microbial growth. All assays were performed in two independent experiments, each conducted with two technical replicates (n = 4 per condition).

For series [2], the system named is Klebsiella quasipneumoniae ATCC 700603. Type of series: cell-based. The protocol:
as §1

Series [3] concerns C. albicans ATCC 10231. Type of series: cell-based, Candida albicans. The method, then:
as §1

Series [4] deals with human red blood cells. Put plainly: Hemolysis assay. The note with it: human erythrocytes 1:10 in 0.9% PBS, 50 µM peptide, 37 °C, 3 h, OD 545 nm, 0.1% Triton X-100 = positive control, three replicate wells.
The test system of series [5] is human breast adenocarcinoma (MCF-7) cells. In kind it is cell-based. The note with it: MTT, 24 h incubation with peptide, triplicate, non-linear regression; read-out: IC50 MCF-7. The protocol: (§2) The methodology proposed by Zhang et al. […] After 24 h of incubation, the wells were washed twice with PBS, and 10 μL of MTT solution was added to each well at a final concentration of 0.5 mg/mL, and the cell cultures were incubated for 4 h at 37 °C. The solution was removed from each well, and the formazan crystals were dissolved with 100 μL of Sodium Dodecyl Sulfate (0.01 M). After 16 h, absorbance was measured with a MultiSkan Go microplate reader at 570 nm. The untreated wells were used as a negative control, while wells treated with DMSO were used as a positive control for cytotoxicity. The percent viability was determined using the following equation. %viability=[…]-×100% where ABSM is the average absorbance with the treatment and ABSC is the absorbance obtained in the controls (positive and negative).

Series [6] deals with human lung adenocarcinoma (A549) cells. Type of series: cell-based. The note with it: MTT, 24 h incubation with peptide, triplicate, non-linear regression; read-out: IC50 A549. The method, then:
as §2

Series [7] has as its system P. aeruginosa ATCC 27853. Type of series: cell-based, Pseudomonas aeruginosa. The method, then:
as §1

The subject of series [8] is S. aureus ATCC 25923. Type of series: cell-based, Staphylococcus aureus. The protocol: as §1
[9] abbreviates: Mueller–Hinton, 10^6 CFU/mL, 37 °C, 24 h, OD 600 nm, minimum concentration with no growth, n = 4.
Where [10] appears, read: minimum bactericidal concentration, value in brackets.

Regarding IKKWGKVLKKLI [VeP1M], in series [1] (setting [9]), the MIC E.c was 7.6 µM. For the same sequence, the IC50 in series [1] (half inhibitory concentration against the microorganism, Table S4, dose-response curves, read-out: IC50 E.c.) stood at 3.7 µM; in series [2] (half inhibitory concentration against the microorganism, Table S4, dose-response curves, read-out: IC50 K.q.) it was 6.8 µM; in series [3] (half inhibitory concentration against the microorganism, Table S4, dose-response curves, read-out: IC50 C.a.), 10 µM; in series [5] it was 13.6 µM; in series [6], 35 µM; in series [7] (half inhibitory concentration against the microorganism, Table S4, dose-response curves, read-out: IC50 P.a.) it was 10 µM. Moreover, the IC50 in series [8] (half inhibitory concentration against the microorganism, Table S4, dose-response curves, read-out: IC50 S.a.) worked out at 8.3 µM. The sequence also returned an MBC E.c in series [1] (setting [10]) of 7.6 µM. Besides, in series [2] (setting [9]), the MIC K.q was found to be 30.4 µM. In series [2] (setting [10]), this sequence registered an MBC K.q of 30.4 µM. In series [3] (MH + 30% YPD, 10^6 CFU/mL, 30 °C, 24 h, OD 600 nm, minimum concentration with no growth, n = 4), the “MIC C.a” value was 15.2 µM. For the same sequence, the “MFC C.a” value in series [3] (minimum fungicide concentration, value in brackets) is 30.3 µM. In addition, in series [4], the “% Hemolysis at 50 µM” value came to 0.0%. The same sequence returned an MIC P.a in series [7] (setting [9]) of 3.8 µM. Besides, the MBC P.a in series [7] (setting [10]) came to 3.8 µM. Further, in series [8] (setting [9]), the MIC S.a stood at 15.2 µM. The MBC S.a in series [8] (setting [10]) was determined as 15.2 µM.
